Earlier results, collected in patent US20250312270A1, “READY-TO-INFUSE PHENYLEPHRINE COMPOSITIONS” (AMNEAL EU, LIMITED, priority 2023, published 2025).

Test system: blood pressure
Conditions: doses above 6 mcg/kg/min, intravenous continuous infusion, adult patients with septic or other vasodilatory shock

Q: With `CNC[C@H](O)c1cccc(O)c1` [phenylephrine, (R)-3-Hydroxy-α-(methylaminomethyl)benzyl alcohol] as the compound, how does the “incremental increase in blood pressure” value read?
A: The value was “do not show significant incremental increase in blood pressure”.
